Experimental data from PMC9862305 (Plants, 2023).
Values after ≈ are worked out from the molar mass of the structure shown. Like-named read-outs stand apart in the source and are kept apart here.

Columns and labels:
[1] = tested on: AChE; details: cited from earlier work; for IC50 (AChE inhibitory activity): individual compound
[2] = tested on: BChE; details: cited from earlier work
[3] = target: T1, Butyrylcholinesterase from equine serum (Equus caballus, UniProt P81908); assay: biochemical
T1 construct: using BChE from equine serum (lyophilized powder ≥ 500 units/mg protein); purchased Sigma-Aldrich; host or cells: equine serum
Description: (§1) The cholinesterase inhibitory potentials of the isolated compounds were evaluated via a spectrophotometric approach, which was adapted by Ellman’s method. […] Enzyme inhibition is a beneficial approach in order to evaluate the pharmacological potential of herbal remedies and pure substances. The inhibition of the AChE and BChE enzymes has been linked to the alleviation of symptoms associated with memory impairment in AD [10]. […] Methoxylation may decrease or increase activity depending on the type of flavonoids (flavones, flavanones, or isoflavones). […] Moreover, the hydrogenation of the double bond next to the carbonyl carbon in the structure of flavanones also decreases their affinity for cholinesterase inhibitory activity. However, there are some exceptions to the aforementioned observation of structure–activity relationship in the literature.
(§2) Acetylcholinesterase (AchE) from Electrophorus electricus (electrical eels, type VI-S, 200–1000 unit/mg), Butyrylcholinesterase from equine serum (lyophilized powder ≥ 500 units/mg protein), substrate acetylthiocholine iodide (ATCI), S-butyrylthiocholine iodide (BTCI), sodium phosphate monobasic, and sodium phosphate dibasic were purchased from Sigma-Aldrich (St. Louis, MO, USA). The coloring agent 5,5-dithio-bis-[2-nitrobenzoic acid] (DTNB), and β-sitosterol were obtained from Acros Organics (Acros Organics, NJ, USA). […] Silica gel (Kieselgel 60, 230–400 mesh atm) was purchased from Merck (Darmstadt, Germany). The solvents were of analytical grade and used as received.
(§3) Each run was carried out in triplicate on three consecutive days. Anti-BChE assays were performed using the same procedures described above but using BChE from equine serum (lyophilized powder ≥ 500 units/mg protein) instead of AChE and BTCI instead of ACTI. The final absorbance of each tested sample was calculated by subtracting the absorbance of their respective blank without enzyme addition. […] Then, the IC50 values of all tested samples and standards were calculated from the curve of the % inhibition versus concentration. (1) % Inhibition=Abs −ve control−Abs test sample/Abs −ve control×100

[4] = target: T2, Acetylcholinesterase (AChE) from Electrophorus electricus (Electrophorus electricus, UniProt O42275); assay: biochemical
T2 construct: purchased Sigma-Aldrich type VI-S (catalogue number not given)
Description: as §1, §2, §3

[5] = BChE (IC50) µM, isolated compounds, Table 4
[6] = BChE (IC50) µg/mL, isolated compounds, Table 4
[7] = AChE (IC50) µM, isolated compounds, Table 4
[8] = AChE (IC50) µg/mL, isolated compounds, Table 4
[9] = luteolin isolated from Globularia meridionalis
[10] = isolated compounds, Table 4, read-out: AChE (IC50)
[11] = read-out: AChE (IC50) µg/mL (converted)

T1 sequence (P81908 whole entry): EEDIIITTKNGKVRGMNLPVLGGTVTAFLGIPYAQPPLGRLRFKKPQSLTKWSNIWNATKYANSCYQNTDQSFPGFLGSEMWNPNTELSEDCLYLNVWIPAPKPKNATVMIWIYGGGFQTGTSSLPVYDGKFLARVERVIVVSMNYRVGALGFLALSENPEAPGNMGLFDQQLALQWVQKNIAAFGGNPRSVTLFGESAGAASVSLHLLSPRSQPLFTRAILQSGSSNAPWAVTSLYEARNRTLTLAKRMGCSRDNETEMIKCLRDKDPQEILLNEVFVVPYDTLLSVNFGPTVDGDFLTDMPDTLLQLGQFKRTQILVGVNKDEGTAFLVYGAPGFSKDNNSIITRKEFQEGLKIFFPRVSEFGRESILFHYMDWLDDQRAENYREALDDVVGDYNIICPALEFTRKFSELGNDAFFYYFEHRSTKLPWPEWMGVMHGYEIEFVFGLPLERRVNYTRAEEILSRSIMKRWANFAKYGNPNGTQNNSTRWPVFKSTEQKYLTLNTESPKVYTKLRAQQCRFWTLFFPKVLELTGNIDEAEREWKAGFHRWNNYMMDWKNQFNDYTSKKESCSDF
T2 sequence (O42275 24-633): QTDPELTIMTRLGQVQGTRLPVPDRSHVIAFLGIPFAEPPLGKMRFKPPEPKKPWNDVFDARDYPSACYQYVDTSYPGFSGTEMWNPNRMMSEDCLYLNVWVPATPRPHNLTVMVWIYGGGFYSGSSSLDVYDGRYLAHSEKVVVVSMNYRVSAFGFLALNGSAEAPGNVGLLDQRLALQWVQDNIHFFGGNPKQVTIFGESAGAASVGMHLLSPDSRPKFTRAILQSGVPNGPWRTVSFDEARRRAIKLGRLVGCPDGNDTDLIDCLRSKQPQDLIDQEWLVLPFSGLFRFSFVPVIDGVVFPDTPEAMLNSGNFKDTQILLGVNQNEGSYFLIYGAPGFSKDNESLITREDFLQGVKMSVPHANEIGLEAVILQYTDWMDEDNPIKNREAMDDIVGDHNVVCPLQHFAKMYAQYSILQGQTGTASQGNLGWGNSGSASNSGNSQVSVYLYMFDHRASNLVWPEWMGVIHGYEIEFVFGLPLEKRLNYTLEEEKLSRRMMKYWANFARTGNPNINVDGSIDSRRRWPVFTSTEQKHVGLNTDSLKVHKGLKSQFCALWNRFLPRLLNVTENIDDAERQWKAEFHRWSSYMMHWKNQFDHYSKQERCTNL

O=c1cc(-c2ccccc2)oc2cc(O)c(O)c(O)c12 [baicalein]
IC50 ([1]; read-out: IC50 (AChE)): 46 ± 3.44 µM

Omifoate A [reference compound]
IC50 for AChE [1]: 6.51 µg/mL | IC50 for BChE [2]: 9.07 µg/mL

COc1ccc(-c2cc(=O)c3c(O)cc(O[C@@H]4O[C@H](CO)[C@H](O)[C@H](O)[C@H]4O)cc3o2)cc1 [acacetin-7-O-beta-D-galactopyranoside]
IC50 ([1]; read-out: IC50): 6.7 µM

O=C(O)/C=C/c1ccccc1 [Compound 5, Cinnamic acid]
IC50 [3, 5]: 373 ± 16.4 µM | IC50 [3, 6]: 373 µM

O=c1cc(-c2ccc(O)cc2)oc2cc(O)cc(O)c12 [apigenin]
IC50 ([1]; read-out: IC50 (AChE)): 34.4 ± 2.41 µM

CC[C@H](/C=C/[C@@H](C)[C@H]1CC[C@H]2[C@@H]3CC=C4C[C@@H](O)CC[C@]4(C)[C@H]3CC[C@]12C)C(C)C [Compound 4, Stigmasterol]
IC50 (AChE inhibitory activity) [1]: 63 µg/mL (≈ 153 µM)

O=C(O)C=Cc1ccc(O)cc1 [Compound 6, 4-Hydroxycinnamic acid]
IC50 [3, 5]: 409 ± 14.8 µM | IC50 [3, 6]: 409 µM | IC50 [4, 7]: 43.4 ± 0.61 µM | IC50 [4, 8]: 43.4 µM

O=c1cc(-c2ccc(O)c(O)c2)oc2cc(O)cc(O)c12 [Compound 2, Luteolin]
IC50 [3, 5]: 46.2 ± 2.2 µM | IC50 [3, 6]: 46.2 µM | IC50 [4, 7]: 20.5 ± 1.1 µM | IC50 [4, 8]: 20.5 µM | IC50 for AChE [1, 9]: 25.2 ± 0.4 µg/mL | IC50 ([1]; luteolin isolated from Rhizoma drynariae, read-out: AChE inhibition potential): 17.3 ± 0.23 µM | IC50 for BuChE [2, 9]: 37.2 ± 0.5 µg/mL

O=Cc1ccc(CO)o1 [Compound 7]
IC50 ([3]; read-out: BChE (IC50) µg/mL): > 793 µM | IC50 [4, 10]: 158 ± 3.49 µM | IC50 [4, 11]: 158 µM

CC[C@H](CC[C@@H](C)[C@H]1CC[C@H]2[C@@H]3CC=C4C[C@@H](O)CC[C@]4(C)[C@H]3CC[C@]12C)C(C)C [Compound 3, β-sitosterol]
IC50 [3, 5]: 157 ± 7.26 µM | IC50 [3, 6]: 157 µM | IC50 [4, 7]: 137 ± 8.66 µM | IC50 [4, 8]: 137 µM | IC50 (AChE inhibitory activity) [1]: 55 µg/mL (≈ 133 µM)

CCCCCCCCCCCCCCCCCCCCOC(=O)CCCCCCCCCCCCCCCCCCC [Compound 1, Arachidyl arachidate]
IC50 ([3]; read-out: BChE (IC50) µg/mL): > 253 µM | IC50 [4, 10]: 248.6 ± 2.24 µM | IC50 [4, 11]: 249 µM

COc1ccc(-c2cc(=O)c3c(O)cc(O)cc3o2)cc1 [acacetin]
IC50 ([1]; read-out: IC50): 65.3 µM
